The source of these data is patent publication US20090203705A1, “Spiro Compounds As NPY Y5 Receptor Antagonists” (priority 2008, published 2009).

Where a name gives a salt, the structure may show the parent alone.

The first assay addresses T1, human NPY Y5 receptor (Homo sapiens, UniProt Q15761).
T1 construct: expressed in transfected cells; host or cells: HEK293 (cell line HEK 293 signal-hNPY Y5/G16z49)
T1 sequence (Q15761 1-445): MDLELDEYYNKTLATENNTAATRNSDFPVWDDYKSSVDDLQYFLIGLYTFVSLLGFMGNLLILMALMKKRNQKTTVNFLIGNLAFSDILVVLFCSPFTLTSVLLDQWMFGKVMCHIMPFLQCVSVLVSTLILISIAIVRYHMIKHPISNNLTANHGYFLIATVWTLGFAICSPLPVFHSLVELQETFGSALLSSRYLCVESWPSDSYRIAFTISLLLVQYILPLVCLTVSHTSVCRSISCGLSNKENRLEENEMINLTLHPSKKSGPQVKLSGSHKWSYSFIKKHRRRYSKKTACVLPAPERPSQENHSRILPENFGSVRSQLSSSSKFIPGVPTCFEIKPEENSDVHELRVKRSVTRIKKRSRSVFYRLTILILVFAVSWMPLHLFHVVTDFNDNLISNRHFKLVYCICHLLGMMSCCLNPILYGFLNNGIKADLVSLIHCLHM
Description: FLIPR/Ca2+ functional activity at recombinant human NPY Y5 receptor. The conditions noted are these: HEK 293 signal-hNPY Y5/G16z49 cells; inhibition of calcium release by PYY at EC80; Cheng-Prusoff; read-out: fpKi. It counts as cell-based. An excerpt: The functional activity of the compounds of the invention for the NPY Y5 receptor may be determined by the FLIPR/Ca^2+ assay as described below. Such potency is typically calculated from the IC50 obtained in FLIPR experiments as the concentration of a compound necessary to decrease 50% of the calcium release following cells exposure to a concentration of PYY eliciting 80% response (i.e. EC80), and is reported as a “fKi” value calculated by the following equation: […]
where EC80 and EC50 corresponding to the agonist (PYY) concentrations that eliciting 80% and 50% response, respectively (corresponding to the Cheng and Prusoff equation). In the context of the present invention pfKi values (corresponding to the […] of fKi) are used instead of fKi; pfKi results are only estimated to be accurate to about 0.3-0.5.
The functional activity at the human NPY Y5 receptor stably expressed in HEK293 cells was assessed using FLIPR/Ca^2+ methodology (cell line name: HEK 293 signal-hNPY Y5/G16z49). The assay is configured to re-direct receptor-mediated signalling to the calcium release from intracellular stores via the promiscuous Gal 6z49 protein. PYY (peptide YY) is an endogenous agonist and can activate the receptor, thereupon causing an increase in the level of calcium in the cells sensed by Fluo4-AM and measured by FLIPR. Antagonist effects are monitored by the blockade or decrease in calcium release once cells co-expressing hNPY Y5 receptor and Ga16z49 are exposed to a concentration of PYY eliciting 80% response (i.e. EC80). A non-linear, 4 parameter logistic curve-fit of the data generated pIC50 value. Applying the Cheng-Prusoff equation to antagonist concentration-response for inhibition of fixed PYY concentration yielded the fpKi values.
Cells are cultured in DMEM/F12 supplemented with 10% FBS, 2 mM Glutamine, 200 μg/ml hygromycin B and 500 μg/ml G418. The day before a FLIPR experiment, cells are plated out into 384-well Poly-D-Lysine coated FLIPR plates at a density of 200'000 cells/ml corrects to give 10'000 cells per 50 μL per well using medium without antibiotics. On the day of experiment, cells are washed with an assay buffer containing 20 mM HEPES/NaOH, 145 mM NaCl, 5 mM KCl, 1 mM MgCl2, 2 mM CaCl2, 1 g/L D-glucose and 2.5 mM probenecid, pH 7.3 and loaded with 2 μM Fluo-4 AM for 60 min at 37° C. and 5% CO2. The excess of dye solution is removed by washing cells with buffer. Compound solutions, prepared by serially diluting compounds in neat DMSO and then a final 1:50 dilution step in assay buffer added with 0.05% pluronic acid, are added and incubated with the loaded cells for 30 min at 37° C. and 5% CO2.
Cells are then put in the FLIPR for the stimulus addition corresponding to a concentration of PYY eliciting 80% of the response. The response of cells to the agonist is fast and measured for 2 min after PYY addition.
As for `O=C1O[C@]2(CC[C@H](CNc3ccc(Oc4ccccc4OC(F)(F)F)nn3)CC2)CN1c1cccnn1` [Example 4-56, (Trans)-3-(3-pyridazinyl)-8-({[6-({2-[(trifluoromethyl)oxy]phenyl}oxy)-3-pyridazinyl]amino}methyl)-1-oxa-3-azaspiro[4.5]decan-2-one], the Ki was ≤ 0.1 nM.

As for `O=C1O[C@]2(CC[C@H](CNc3ccc(-c4ccccc4F)nn3)CC2)CN1c1cccnc1F` [Example 4-7, (Trans)-8-({[6-(2-fluorophenyl)-3-pyridazinyl]amino}methyl)-3-(2-fluoro-3-pyridinyl)-1-oxa-3-azaspiro[4.5]decan-2-one Hydrochloride], the Ki was ≤ 0.316 nM.

Turning to `O=C1O[C@]2(CC[C@H](CNc3ccc(-c4cccc(C(F)(F)F)c4)nn3)CC2)CN1c1cccnn1` [Example 4-40, (Trans)-3-(3-pyridazinyl)-8-[({6-[3-(trifluoromethyl)phenyl]-3-pyridazinyl}amino)methyl]-1-oxa-3-azaspiro[4.5]decan-2-one Hydrochloride], the Ki is ≤ 0.1 nM.

As to `O=C1O[C@]2(CC[C@H](CNc3ccc(-c4cc(F)cc(F)c4)nn3)CC2)CN1c1cccnn1` [Example 4-3, (Trans)-8-({[6-(3,5-difluorophenyl)-3-pyridazinyl]amino}methyl)-3-(3-pyridazinyl)-1-oxa-3-azaspiro[4.5]decan-2-one Dihydrochloride], the Ki was ≤ 0.1 nM.

With `O=C1O[C@]2(CC[C@H](CNc3ccc(-c4ccccc4)nn3)CC2)CN1c1cccnn1` [Example 4-38, (Trans)-8-{[(6-phenyl-3-pyridazinyl)amino]methyl}-3-(3-pyridazinyl)-1-oxa-3-azaspiro[4.5]decan-2-one Dihydrochloride], the Ki was ≤ 1 nM.

Turning to `Cc1cc(N2C[C@]3(CC[C@@H](CNc4ccc(-c5ccccc5C)nn4)CC3)OC2=O)ccn1` [Example 4-39, (Trans)-8-({[6-(2-methylphenyl)-3-pyridazinyl]amino}methyl)-3-(2-methyl-4-pyridinyl)-1-oxa-3-azaspiro[4.5]decan-2-one Dihydrochloride], the Ki was ≤ 0.1 nM.

Staying with this assay, now noted: assay not given; towards NPY Y5 receptor.
`Cl.O=C1OC2(CCC(CNc3cc(-c4ccccc4)ccn3)CC2)CN1c1cccnn1` (stereo not drawn) [Example 1-39, (Trans)-8-{[(4-phenyl-2-pyridinyl)amino]methyl}-3-(3-pyridazinyl)-1-oxa-3-azaspiro[4.5]decan-2-one hydrochloride]: the “activity at the highest concentration set by the experiment” value (“activity” below) was “don't show activity”.

Turning to “(Trans)-8-({[4-(1-pyrimidinyl)-2-pyrimidinyl]amino}methyl)-3-(3-pyridazinyl)-1-oxa-3-azaspiro[4.5]decan-2-one Dihydrochloride [Example 3-11]”, the “activity” value is “don't show activity”.

On to `Cl.O=C1OC2(CCC(CNc3nsc4ccccc34)CC2)CN1c1cccnn1` (stereo not drawn) [Example 5-5, (Trans)-8-[(1,2-benzisothiazol-3-ylamino)methyl]-3-(3-pyridazinyl)-1-oxa-3-azaspiro[4.5]-decan-2-one Hydrochloride], for which the “activity” value was “don't show activity”.

Consider `Cl.Cl.O=C1OC2(CCC(CNc3ccc(C(F)(F)F)nc3)CC2)CN1c1cccnc1` (stereo not drawn) [Example 1-55, (Trans)-3-(3-pyridinyl)-8-({[6-(trifluoromethyl)-3-pyridinyl]amino}methyl)-1-oxa-3-azaspiro[4.5]decan-2-one Dihydrochloride], for which the “activity” value is given as “don't show activity”.

With `Cn1ccnc1-c1cnc(NCC2CCC3(CC2)CN(c2ccccn2)C(=O)O3)nc1` (stereo not drawn) [Example 3-6, (Trans)-8-({[5-(1-methyl-1H-imidazol-2-yl)-2-pyrimidinyl]amino}methyl)-3-(2-pyridinyl)-1-oxa-3-azaspiro[4.5]decan-2-one], the “activity” value is recorded as “don't show activity”.

As for `Cl.Cl.O=C1O[C@]2(CC[C@H](CNc3ccc(N4CCOCC4)nc3)CC2)CN1c1ccccn1` [Example 1-57, (Trans)-8-({[6-(4-morpholinyl)-3-pyridinyl]amino}methyl)-3-(2-pyridinyl)-1-oxa-3-azaspiro[4.5]decan-2-one.dihydrochloride], the “activity” value is reported as “don't show activity”.

As for `O=C1OC2(CCC(CNc3ccc(Cl)nn3)CC2)CN1c1ccccn1` (stereo not drawn) [Example 4-12, (Trans)-8-{[(6-chloro-3-pyridazinyl)amino]methyl}-3-(2-pyridinyl)-1-oxa-3-azaspiro[4.5]-decan-2-one], the “activity” value is reported as “don't show activity”.

Regarding `CC(C)(C)OCCOc1ccc(NCC2CCC3(CC2)CN(c2cccnn2)C(=O)O3)nn1.Cl.Cl` (stereo not drawn) [Example 4-10, (Trans)-8-({[6-({2-[(1,1-dimethylethyl)oxy]ethyl}oxy)-3-pyridazinyl]amino}methyl)-3-(3-pyridazinyl)-1-oxa-3-azaspiro[4.5]decan-2-one dihydrochloride], the “activity” value is given as “don't show activity”.

Consider `O=C1OC2(CCC(CNc3ncc(Br)cn3)CC2)CN1c1ccccn1` (stereo not drawn) [Example 3-7, (Trans)-8-{[(5-bromo-2-pyrimidinyl]amino}methyl)-3-(2-pyridinyl)-1-oxa-3-azaspiro[4.5]decan-2-one], for which the “activity” value was “don't show activity”.

Regarding `O=C1OC2(CCC(CNc3ncc(-c4ccnnc4)cn3)CC2)CN1c1ccccn1` (stereo not drawn) [Example 3-9, (Trans)-8-({[5-(4-pyridazinyl)-2-pyrimidinyl]amino}methyl)-3-(2-pyridinyl)-1-oxa-3-azaspiro[4.5]decan-2-one], the “activity” value is “don't show activity”.

Regarding `Cl.O=C1OC2(CCC(CNc3nccc(OCc4ccccc4)n3)CC2)CN1c1cccnn1` (stereo not drawn) [Example 3-12, (Trans)-8-[({4-[(phenylmethyl)oxy]-2-pyrimidinyl}amino)methyl]-3-(3-pyridazinyl)-1-oxa-3-azaspiro[4.5]decan-2-one hydrochloride], the “activity” value is “don't show activity”.
